Experimental findings from patent US20260055102A1 (Redx Pharma Limited, priority 2022, published 2026) are described below.

Test [1] concerns the target Recombinant human DDR2 (aa427-855 containing a GST tag) (Homo sapiens (Human), UniProt Q16832). The experiment in a line: LanthaScreen Eu Kinase Binding Assay DDR2. Particulars: Kinase Tracer 178 10 nM, at least two independent replicates; for IC50: read-out: DDR2 pIC50 (converted). Here is the method: (§1) DDR1 and DDR2 Biochemical Assay Method The capacity of compounds to bind to DDR1 and DDR2 was quantified using a LanthaScreen Eu Kinase Binding Assay. Recombinant human DDR1 (2.5 nM; aa440-876 containing a GST tag) and DDR2 (1.75 nM; aa427-855 containing a GST tag) were diluted in assay buffer (50 mM HEPES pH7.3, 10 mM MgCl2, 1 mM EGTA and 0.01% Tween) with various concentrations of compound in a 384-well plate and a volume of 5 uL. After a 30-minute incubation at room temperature, 2.5 uL of Eu-anti GST antibody (diluted to 1 nM in assay buffer) plus Kinase Tracer 178 (diluted in assay buffer to 5 nM for DDR1 and 10 nM for DDR2) were added to the plate. Following 60-minute incubation at room temperature, time-resolved fluorescence was measured on a BMG Labtech PHERAstar plate reader. DMSO (1%) and reference compound (1 μM) were used to generate the Max and Min assay signals, respectively. Data was analysed using a four-parameter logistic model to calculate IC50 values, with at least two independent replicates were performed for each compound.
Background: In TR-FRET formats the signal depends on donor and acceptor labels being close together.

The target in test [2] is Recombinant human DDR1 (aa440-876 containing a GST tag) (Homo sapiens (Human), UniProt Q08345). In words: LanthaScreen Eu Kinase Binding Assay DDR1. Particulars: Kinase Tracer 178 5 nM, at least two independent replicates; for IC50: read-out: DDR1 pIC50 (converted). Here is the method: as §1
Sequence of Recombinant human DDR1 (aa440-876 containing a GST tag) (Q08345 other isoform, or with tags, fused parts or gaps): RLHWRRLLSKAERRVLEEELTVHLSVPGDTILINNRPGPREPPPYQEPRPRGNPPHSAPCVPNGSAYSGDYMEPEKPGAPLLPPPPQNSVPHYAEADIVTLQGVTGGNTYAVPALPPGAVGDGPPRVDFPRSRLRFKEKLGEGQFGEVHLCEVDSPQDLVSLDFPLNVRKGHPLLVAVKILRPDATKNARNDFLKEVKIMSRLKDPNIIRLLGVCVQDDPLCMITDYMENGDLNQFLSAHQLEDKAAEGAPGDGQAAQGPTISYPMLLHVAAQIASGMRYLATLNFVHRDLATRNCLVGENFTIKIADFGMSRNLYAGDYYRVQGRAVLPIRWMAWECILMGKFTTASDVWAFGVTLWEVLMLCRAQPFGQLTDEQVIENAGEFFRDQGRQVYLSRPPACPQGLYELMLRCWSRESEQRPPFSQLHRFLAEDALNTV

The structures appear in SMILES notation.

Sequence of Recombinant human DDR2 (aa427-855 containing a GST tag) (Q16832 427-855): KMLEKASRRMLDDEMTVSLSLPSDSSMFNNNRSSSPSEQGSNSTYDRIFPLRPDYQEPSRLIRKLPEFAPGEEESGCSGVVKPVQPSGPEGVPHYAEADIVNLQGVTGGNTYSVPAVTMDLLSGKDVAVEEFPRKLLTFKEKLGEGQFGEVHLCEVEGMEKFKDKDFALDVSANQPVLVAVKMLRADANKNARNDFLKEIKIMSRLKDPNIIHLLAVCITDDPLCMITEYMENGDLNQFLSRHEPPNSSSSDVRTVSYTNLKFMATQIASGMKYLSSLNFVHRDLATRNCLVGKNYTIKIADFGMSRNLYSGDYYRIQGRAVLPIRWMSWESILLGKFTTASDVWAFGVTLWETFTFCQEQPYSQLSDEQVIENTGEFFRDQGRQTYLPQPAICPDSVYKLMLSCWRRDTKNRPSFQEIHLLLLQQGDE

As for `Cc1cccc2c1n(-c1ccc(-c3cncc4c3cnn4C)nc1)c(=O)n2CC(=O)N1CCOC(C(F)(F)F)C1` (stereo in doubt) [Example 55, 4-methyl-3-[6-(1-methylpyrazolo[3,4-c]pyridin-4-yl)-3-pyridyl]-1-[2-oxo-2-[(2S)-2-trifluoromethyl)morpholin-4-yl]ethyl]benzimidazol-2-one], the IC50 was 100 to 1000 nM in test [1] and below 10 nM in test [2].
For `Cn1ncc2c(-c3ccc(-n4c(=O)n(CC(=O)NCC(F)(F)F)c5ccccc54)cc3)cncc21` [Example 1, 2-[3-[4-(1-methylpyrazolo[3,4-c]pyridin-4-yl)phenyl]-2-oxobenzimidazol-1-yl]-N-(2,2,2-trifluoroethyl)acetamide], the “DDR2 pIC50” value in test [1] is recorded as “D (pIC50≤6)”. Further, the IC50 in test [2] is 10 to 100 nM.
For the compound `Cn1ncc2c(-c3ccc(-n4c(=O)n(CC(=O)N5CCC[C@H]5C(F)(F)F)c5ccccc54)cc3)cncc21` [Example 2, 1-[4-(1-methylpyrazolo[3,4-c]pyridin-4-yl)phenyl]-3-[2-oxo-2-[(2S)-2-(trifluoromethyl)pyrrolidin-1-yl]ethyl]benzimidazol-2-one], the IC50 in test [1] is 100 to 1000 nM. The “DDR1 pIC50” value in test [2] is given as “A (pIC50>8)”.
Take `Cn1ncc2c(-c3ccc(-n4c(=O)n(CC(=O)NCC(F)(F)F)c5ccccc54)cc3F)cncc21` [Example 4, 2-[3-[3-fluoro-4-(1-methylpyrazolo[3,4-c]pyridin-4-yl)phenyl]-2-oxobenzimidazol-1-yl]-N-(2,2,2-trifluoroethyl)acetamide]: in test [1], the “DDR2 pIC50” value is given as “D (pIC50≤6)”. Besides, the IC50 in test [2] was 10 to 100 nM.
Take `Cc1cc(-n2c(=O)n(CC(=O)NCC(F)(F)F)c3ccccc32)ccc1-c1cncc2c1cnn2C` [Example 5, 2-[3-[3-methyl-4-(1-methylpyrazolo[3,4-c]pyridin-4-yl)phenyl]-2-oxobenzimidazol-1-yl]-N-(2,2,2-trifluoroethyl)acetamide]: in test [1], the “DDR2 pIC50” value is “D (pIC50≤6)”. Also, the “DDR1 pIC50” value in test [2] was “D (pIC50≤6)”.
As to `Cc1cccc2c1n(-c1ccc(-c3cncc4c3cnn4C)cc1)c(=O)n2CC(=O)NCC(F)(F)F` [Example 6, 2-[4-methyl-3-[4-(1-methylpyrazolo[3,4-c]pyridin-4-yl)phenyl]-2-oxobenzimidazol-1-yl]-N-(2,2,2-trifluoroethyl)acetamide], in test [1], the IC50 is 10 to 100 nM. Also, the “DDR1 pIC50” value in test [2] was “A (pIC50>8)”.
For `Cc1cccc2c1n(-c1ccc(-c3cncc4c3cnn4C)cc1)c(=O)n2CC(=O)N[C@@H](C)C(F)(F)F` [Example 7, 2-[4-methyl-3-[4-(1-methylpyrazolo[3,4-c]pyridin-4-yl)phenyl]-2-oxobenzimidazol-1-yl]-N-[(1S)-2,2,2-trifluoro-1-methylethyl]acetamide], in test [1], the “DDR2 pIC50” value was “A (pIC50>8)”. In addition, the “DDR1 pIC50” value in test [2] was “A (pIC50>8)”.
As to `Cc1cccc2c1n(-c1ccc(-c3cncc4c3cnn4C)cc1)c(=O)n2CC(=O)N1CCC[C@H]1C(F)(F)F` [Example 8, 4-methyl-3-[4-(1-methylpyrazolo[3,4-c]pyridin-4-yl)phenyl]-1-[2-oxo-2-[(2S)-2-(trifluoromethyl)pyrrolidin-1-yl]ethyl]benzimidazol-2-one], in test [1], the “DDR2 pIC50” value was “A (pIC50>8)”. In addition, the “DDR1 pIC50” value in test [2] is “A (pIC50>8)”.
On to `Cc1cccc2c1n(-c1ccc(-c3cncc4c3cnn4C)cc1)c(=O)n2CC(=O)N1CCOC(C(F)(F)F)C1` (stereo not shown) [Example 9, 4-methyl-3-[4-(1-methylpyrazolo[3,4-c]pyridin-4-yl)phenyl]-1-[2-oxo-2-[2-(trifluoromethyl)morpholin-4-yl]ethyl]benzimidazol-2-one], for which the IC50 in test [1] is 10 to 100 nM. The “DDR1 pIC50” value in test [2] was “A (pIC50>8)”.
As for `Cc1cccc2c1n(-c1ccc(-c3cncc4c3cnn4C)cc1)c(=O)n2CC(=O)N1CCO[C@@H](C(F)(F)F)C1` [Example 10, 4-methyl-3-[4-(1-methypyrazolo[3,4-c]pyridin-4-yl)phenyl]-1-[2-oxo-2-[(2R)-2-(trifluoromethyl)morpholin-4-yl]ethyl]benzimidazol-2-one], the IC50 in test [1] is 10 to 100 nM. In addition, in test [2], the “DDR1 pIC50” value was “A (pIC50>8)”.
With `Cn1ncc2c(-c3ccc(-n4c(=O)n(CC(=O)NCC(F)(F)F)c5cccc(Cl)c54)cc3)cncc21` [Example 11, 2-[4-chloro-3-[4-(1-methylpyrazolo[3,4-c]pyridin-4-yl)phenyl]-2-oxobenzimidazol-1-yl]-N-(2,2,2-trifluoroethyl)acetamide], the IC50 in test [1] was 10 to 100 nM. In addition, the “DDR1 pIC50” value in test [2] is “A (pIC50>8)”.
As for `COc1cccc2c1n(-c1ccc(-c3cncc4c3cnn4C)cc1)c(=O)n2CC(=O)NCC(F)(F)F` [Example 12, 2-[4-methoxy-3-[4-(1-methylpyrazolo[3,4-c]pyridin-4-yl)phenyl]-2-oxobenzimidazol-1-yl]-N-(2,2,2-trifluoroethyl)acetamide], the “DDR2 pIC50” value in test [1] was “D (pIC50≤6)”. The IC50 in test [2] was 10 to 100 nM.
For the compound `Cc1cc(-c2cncc3c2cnn3C)ccc1-n1c(=O)n(CC(=O)NCC(F)(F)F)c2ccccc21` [Example 13, 2-[3-[2-methyl-4-(1-methylpyrazolo[3,4-c]pyridin-4-yl)phenyl]-2-oxobenzimidazol-1-yl]-N-(2,2,2-trifluoroethyl)acetamide], the “DDR2 pIC50” value in test [1] is “D (pIC50≤6)”. The IC50 in test [2] is 10 to 100 nM.
For the compound `Cc1cc(-c2cncc3[nH]ncc23)ccc1-n1c(=O)n(CC(=O)NCC(F)(F)F)c2ccccc21` [Example 14, 2-[3-[2-methyl-4-(1H-pyrazolo[3,4-c]pyridin-4-yl)phenyl]-2-oxobenzimidazol-1-yl]-N-(2,2,2-trifluoroethyl)acetamide], the IC50 in test [1] is 100 to 1000 nM. Besides, in test [2], the “DDR1 pIC50” value is “A (pIC50>8)”.
`Cn1ncc2c(-c3ccc(-n4c(=O)n(CC(=O)NCC(F)(F)F)c5ccccc54)c(F)c3)cncc21` [Example 15, 2-[3-[2-fluoro-4-(1-methylpyrazolo[3,4-c]pyridin-4-yl)phenyl]-2-oxo-benzimidazol-1-yl]-N-(2,2,2-trifluoroethyl)acetamide]: in test [1], the “DDR2 pIC50” value is “D (pIC50≤6)”. Moreover, in test [2], the IC50 is 100 to 1000 nM.
Take `Cc1cc(-c2cncc3c2cnn3C)ccc1-n1c(=O)n(CC(=O)NCC(F)(F)F)c2cccc(C)c21` [Example 16, 2-[4-methyl-3-[2-methyl-4-(1-methylpyrazolo[3,4-c]pyridin-4-yl)phenyl]-2-oxo-benzimidazol-1-yl]-N-(2,2,2-trifluoroethyl)acetamide]: the IC50 in test [1] is 100 to 1000 nM. Moreover, the “DDR1 pIC50” value in test [2] is “A (pIC50>8)”.
In the case of `CC(NC(=O)Cn1c(=O)n(-c2ccc(-c3cncc4c3cnn4C)cc2)c2ccccc21)C(F)(F)F` (stereo not shown) [Example 17, 2-[3-[4-(1-methylpyrazolo[3,4-c]pyridin-4-yl)phenyl]-2-oxobenzimidazol-1-yl]-N-(2,2,2-trifluoro-1-methylethyl)acetamide], the IC50 in test [1] is 100 to 1000 nM; in test [2], 10 to 100 nM.
Consider `Cn1ncc2c(-c3ccc(-n4c(=O)n(CC(=O)N5CCCC5C(F)(F)F)c5ccccc54)cc3)cncc21` (stereo not shown) [Example 18, 1-[4-(1-methylpyrazolo[3,4-c]pyridin-4-yl)phenyl]-3-[2-oxo-2-[2-(trifluoromethyl)pyrolidin-1-yl]ethyl]benzimidazol-2-one], for which the IC50 in test [1] is 10 to 100 nM. Further, the “DDR1 pIC50” value in test [2] is “A (pIC50>8)”.
Turning to `CC(NC(=O)Cn1c(=O)n(-c2ccc(-c3cncc4c3cnn4C)cc2)c2ccccc21)C1CC1` (stereo not shown) [Example 19, N-(1-cyclopropylethyl)-2-[3-[4-(1-methylpyrazolo[3,4-c]pyridin-4-yl)phenyl]-2-oxobenzimidazol-1-yl]acetamide], in test [1], the “DDR2 pIC50” value is “D (pIC50≤6)”. In addition, in test [2], the IC50 is 10 to 100 nM.
Regarding `Cn1ncc2c(-c3ccc(-n4c(=O)n(CC(=O)N5CCCCC5C(F)(F)F)c5ccccc54)cc3)cncc21` (stereo not shown) [Example 20, 1-[4-(1-methylpyrazolo[3,4-c]pyridin-4-yl)phenyl]-3-[2-oxo-2-[2-(trifluoromethyl)-1-piperidyl]ethyl]benzimidazol-2-one], in test [1], the IC50 was 100 to 1000 nM. The “DDR1 pIC50” value in test [2] is “A (pIC50>8)”.
As to `Cc1cccc2c1n(-c1ccc(-c3cncc4c3cnn4C)cc1)c(=O)n2CC(=O)N1CCC[C@H]1CF` [Example 26, 4-methyl-3-[4-(1-methylpyrazolo[3,4-c]pyridin-4-yl)phenyl]-1-[2-oxo-2-[(2S)-2-(fluoromethyl)pyrrolidin-1-yl]ethyl]benzimidazol-2-one], in test [2], the IC50 is 10 to 100 nM.
Consider `Cc1cccc2c1n(-c1ccc(-c3cncc4c3cnn4C)cn1)c(=O)n2CC(=O)N1CCO[C@H](C(F)(F)F)C1` [Example 61, 4-methyl-3-[5-(1-methylpyrazolo[3,4-c]pyridin-4-yl)-2-pyridyl]-1-[2-oxo-2-[(2S)-2-(trifluoromethyl)morpholin-4-yl]ethyl]benzimidazol-2-one], for which the IC50 in test [1] is 100 to 1000 nM.
For `CN(C)c1cccc2c1n(-c1ccc(-c3cncc4c3cnn4C)cc1)c(=O)n2CC(=O)NCC(F)(F)F` [Example 80, 2-[4-(dimethylamino)-3-[4-(1-methylpyrazolo[3,4-c]pyridin-4-yl)phenyl]-2-oxo-benzimidazol-1-yl]-N-(2,2,2-trifluoroethyl)acetamide], the IC50 in test [2] was 10 to 100 nM.
